Reference: patent US10444244B2, “Microfluidic array supporting a lipid bilayer assembly” (DUBLIN CITY UNIVERSITY, priority 2014, dated 2019)
One block for each molecule: values may come before it.

Key:
[1] = EIS of DOPC bilayer with K+/H+ gradient after Nigericin incorporation; format: physicochemical; settings: 20 μM from ethanol solution; cavities 150 mM K+, outside citrate buffer pH 4, H+ 10 mMol
Experimental: (§1) Gold microcavity electrodes were formed through the method described herein using electrodeposition of gold through a close packed array of polystyrene spheres (2.88 micron in diameter) after which the spheres where removed by sonication in THF for 30 minutes. The gold microcavity array was then modified with mercaptoethanol (ME) by placing the substrate in a 1 mM solution of ME, in ethanol, for 24 hours. Alternatively it is possible to selectively modify the top surface with mercaptonexanol before removal of the spheres and leave the cavities free of surface modification after sphere removal. This latter approach gives even greater reproducibility.
Nigericin is an antiporter of H+ and K+, Herein, the cavities where prefilled with 150 mM K+ before bilayer formation. Citrate buffer (at pH 4) was then added to the electrolyte to supply the system with H+(10 mMol) ions on the outside of the bilayer. The impedance of the DOPC bilayer was measured in the presence of this ionic gradient.

[2] = for decrease in resistivity of DOPC bilayer: between 0 and 400 umol drug, PBS buffer pH 7.4 on both sides of the pore
[3] = FLCS/FCS of labelled lipid diffusion in DOPC bilayer over buffer-filled PDMS cavity array after drug addition; format: physicochemical; settings: for impact on diffusion of the lipophilic BODIPY-HPC probe: PBS pH 7.4, 15 mins incubation, ibuprofen 4-200 μmol, diclofenac 4-800 μmol
Experimental: The lower dye concentration is required for FLCS experiments.
FLCS measurements were recorded over cavities as well as flat PDMS surfaces to obtain the autocorrelation functions for each surface. […] The autocorrelation curves obtained were fit to the 2-dimensional model described in equation 1 to obtain the lateral diffusion co-efficient of the lipids in the bilayer.
where, G(τ) is the autocorrelation function, N is the average number of fluorescent molecules present in the confocal volume, τi is the characteristic residence time, and α is the anomalous parameter which reflects the extent of deviation of diffusion from normal or Brownian motion where α=1, i is the index of the components. The lateral diffusion coefficient, DL, can be obtained as DL=ω^2/4τi. In this equation, ω is the radius of the laser beam used. To determine ω for each excitation, a reference solution of free dye was used for which the diffusion coefficient is known.
The probe is BODIPY labelled DOPE at 1% mol/mol lipid.
Monitoring the diffusion of each probe permitted assessment of interaction of the drug with the membrane and where this interactions occurred; i.e. did it bind to the interface or intercalate in the bilayer? Only a single probe is necessary in most instances, however depending on the sophistication of the FCS instrument two labels can be used in a single two colour experiment or they can be applied in separate experiments to yield detailed insights into the location of the drug at the membrane.

[4] = EIS of DOPC bilayer with K+/Na+ ion gradient after Valinomycin incorporation; format: physicochemical; settings: 20 μM from ethanol solution; cavities Tris KCl, contacting solution Tris NaCl
Experimental: as §1
After sonication a DOPC bilayer was formed over the micro-cavities using a combination of Langmuir-Blodgett and vesicle fusion as described above.
Electrochemical impedance spectra (EIS) of this bilayer were measured by placing the array in contact with Tris NaCl. This creates an ion gradient across the lipid bilayer. The bilayer, effectively insulates the pore from the external contacting solution but once Valinomycin is introduced this should cause K+ ions to flow from inside the cavities into the bulk solution (see schematic in FIG. 18). The impedance of the DOPC bilayer was measured in the presence of this ionic gradient. Valinomycin was then introduced into the cell by adding 20 μM from an ethanol solution. […]

[5] = Electrorelease of CD from cavity to cholesterol containing bilayer, bilayer resistance; format: physicochemical
Description: As an example. Mercaptoferrocene was self-assembled only at the inner cavity surface and a blocking thiolated alcohol (mercaptoethanol or mercaptohexanol) was assembled at the top surface of the array, by modification of the top surface of the array prior to release of the templating sphere and then adhering the ferrocene after sphere removal. The ferrocene binds selectively to streptavidin modified beta-cyclodextrin (CD-streptavidin) which is assembled prior to assembly of the DOPC/DOPC biotinylated bilayer. Application of 0.5 V vs Ag/AgCl results in oxidation of the ferrocene, which in the presence of Na+ acquires a permanent positive charge, preventing reassembly of the CD-streptavidin. The released CD-streptavidin diffuses to the bilayer where its streptavidin pendant recognises and binds to biotin. Such electrorelease can be combined with EIS to allow for the detection of interaction of released agent with the bilayer, and/or it can also be combined with spectroscopic methods, such as Raman and fluorescence spectroscopy for further investigation. […] In principle, the quantity of cholesterol removed can be controlled by altering the quantity of CD at the cavity through use of a mixed monolayer

[6] = DOPC bilayer, 2.8 um PDMS pores

SMILES: CO[C@@H]1C[C@@H](C[C@H]2CC[C@H](C)[C@H]([C@@H](C)C(=O)O)O2)O[C@]2(O[C@](C)([C@H]3CC[C@@](C)([C@@H]4O[C@@H]([C@H]5O[C@@](O)(CO)[C@H](C)C[C@@H]5C)C[C@@H]4C)O3)C[C@H]2C)[C@@H]1C [Nigericin]
change of bilayer resistance after ionophore incorporation [1]: a decrease in the resistance was observed

decrease in resistivity of DOPC bilayer [2]: roughly 6% | effect on impedance of the bilayer at equilibrium ([2]; ibuprofen at 4 and then 8 mMol, 2.8 μm gold cavity arrays, PBS pH 7.4, room temperature, ferrocyanide redox probe): decrease in impedance | diffusion coefficient of the ATTO probe (DOPE-ATTO655) ([3]; 100 μmol of ibuprofen, DOPC bilayer, PBS pH 7.4, without drug 10.37±0.72): 12.05±0.6 μm^2 s^−1 | impact on diffusion of the lipophilic BODIPY-HPC probe [3, 6]: little impact | membrane lipid diffusion coefficient after exposure of the bilayer ([3]; ibuprofen 4 mMol, DOPC bilayer with 1% mol/mol BODIPY labelled DOPE, 2.8 um PDMS pores, PBS pH 7.4, room temperature, without drug approximately 7): approximately 9.5 μms^−1
SMILES: CC(C)Cc1ccc(C(C)C(=O)O)cc1 (stereo not drawn) [ibuprofen]
effect on capacitance of the layer ([2]; ibuprofen at 4 and then 8 mMol, 2.8 μm gold cavity arrays, PBS pH 7.4): initially in a decrease followed by a substantial increase in capacitance

SMILES: CC(C)[C@@H]1NC(=O)[C@H](C)OC(=O)[C@@H](C(C)C)NC(=O)[C@@H](C(C)C)OC(=O)[C@H](C(C)C)NC(=O)[C@H](C)OC(=O)[C@@H](C(C)C)NC(=O)[C@@H](C(C)C)OC(=O)[C@H](C(C)C)NC(=O)[C@H](C)OC(=O)[C@@H](C(C)C)NC(=O)[C@@H](C(C)C)OC1=O [Valinomycin]
change of bilayer resistance after ionophore incorporation [4]: a decrease in the resistance was observed

decrease in resistivity of DOPC bilayer [2]: 65% | diffusion coefficient of Atto-655 labelled DOPE ([3]; 800 μmol diclofenac, DOPC bilayer, PBS pH 7.4, at 0 drug 11.71±0.82): 43.5±8.13 μm^2 s^−1 | impact on diffusion of the lipophilic BODIPY-HPC probe [3, 6]: little effect
SMILES: O=C(O)Cc1ccccc1Nc1c(Cl)cccc1Cl [diclofenac]

SMILES: OC[C@H]1O[C@@H]2O[C@H]3[C@H](O)[C@@H](O)[C@@H](O[C@H]4[C@H](O)[C@@H](O)[C@@H](O[C@H]5[C@H](O)[C@@H](O)[C@@H](O[C@H]6[C@H](O)[C@@H](O)[C@@H](O[C@H]7[C@H](O)[C@@H](O)[C@@H](O[C@H]8[C@H](O)[C@@H](O)[C@@H](O[C@H]1[C@H](O)[C@H]2O)O[C@@H]8CO)O[C@@H]7CO)O[C@@H]6CO)O[C@@H]5CO)O[C@@H]4CO)O[C@@H]3CO [unlabeled CD, beta-cyclodextrin]
effect of electroreleased agent on cholesterol containing bilayer [5]: removal of cholesterol from the bilayer, reflected in a decrease in resistance of the bilayer film
